Where two headings read alike, the source gives them in different places.
What was measured:
[1] = target: purified full length human recombinant ERβ (Homo sapiens, UniProt Q92731); test: ERβ competitive binding assay
[2] = target: T1, purified full length human recombinant ERα (Homo sapiens, UniProt P03372); test: ERα competitive binding assay
T1 sequence (P03372 1-595): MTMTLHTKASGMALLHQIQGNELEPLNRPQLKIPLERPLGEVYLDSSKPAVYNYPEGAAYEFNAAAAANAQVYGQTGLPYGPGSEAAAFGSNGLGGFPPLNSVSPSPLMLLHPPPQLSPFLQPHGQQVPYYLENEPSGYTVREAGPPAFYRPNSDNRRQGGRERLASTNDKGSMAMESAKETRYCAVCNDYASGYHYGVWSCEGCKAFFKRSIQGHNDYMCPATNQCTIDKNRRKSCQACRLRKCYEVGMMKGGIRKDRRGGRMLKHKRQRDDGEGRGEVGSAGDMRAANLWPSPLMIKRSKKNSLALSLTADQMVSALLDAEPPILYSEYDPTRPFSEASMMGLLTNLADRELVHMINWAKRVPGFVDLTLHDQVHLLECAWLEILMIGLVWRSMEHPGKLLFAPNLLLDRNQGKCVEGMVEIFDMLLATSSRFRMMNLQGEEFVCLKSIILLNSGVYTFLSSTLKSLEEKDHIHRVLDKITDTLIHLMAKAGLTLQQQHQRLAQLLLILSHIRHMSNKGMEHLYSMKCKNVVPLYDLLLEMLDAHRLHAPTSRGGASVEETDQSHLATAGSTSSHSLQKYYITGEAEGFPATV

[3] = target: T2, ERα (Ishikawa endometrial carcinoma cells) (Homo sapiens, UniProt P03372); test: Estrogen-responsive alkaline phosphatase assay in ERα positive Ishikawa cells; format: cell-based; settings: for Emax: Ishikawa, read-out: ERα Maximum efficacy
T2 sequence (P03372 1-595): T1 sequence (P03372 1-595)

uterine tissue = settings: 8-PN in dietary concentrations; cited from earlier work
[4] = target: T2, ERα (Ishikawa endometrial carcinoma cells); settings: read-out: ERα EC50 (LigF); compared with 8-PA; cited from earlier work
[5] = relative to 17β-E2, [3H]-E2 tracer 20 nM
[6] = alkaline phosphatase, Ishikawa cells, mean ± SEM
[7] = read-out: ERα EC50 (compounds), alkaline phosphatase, Ishikawa cells, mean ± SEM

purified full length human recombinant ERβ, sequence (Q92731 whole entry): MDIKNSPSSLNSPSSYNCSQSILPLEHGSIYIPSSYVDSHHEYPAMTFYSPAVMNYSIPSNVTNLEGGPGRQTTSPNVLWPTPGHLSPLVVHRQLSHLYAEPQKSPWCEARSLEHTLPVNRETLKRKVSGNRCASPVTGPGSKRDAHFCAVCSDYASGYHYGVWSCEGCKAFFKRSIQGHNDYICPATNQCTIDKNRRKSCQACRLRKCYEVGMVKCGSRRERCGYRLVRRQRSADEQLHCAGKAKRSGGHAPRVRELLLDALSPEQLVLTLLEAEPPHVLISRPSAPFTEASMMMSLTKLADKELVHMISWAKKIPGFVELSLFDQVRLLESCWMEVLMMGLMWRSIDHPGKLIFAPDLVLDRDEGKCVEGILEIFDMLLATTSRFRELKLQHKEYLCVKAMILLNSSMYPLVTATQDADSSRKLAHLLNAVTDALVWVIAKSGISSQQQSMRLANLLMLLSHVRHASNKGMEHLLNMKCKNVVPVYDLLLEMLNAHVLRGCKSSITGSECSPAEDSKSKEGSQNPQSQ

Row | Compound | ERβ % RBA (relative binding affinity = IC50 E2/IC50 (iso)flavonoid x100) [1, 5] | ERα % RBA (relative binding affinity = IC50 E2/IC50 (iso)flavonoid x100) [2, 5] | EC50 [3] | Emax [3] | ERα Maximum efficacy [3, 6] | EC50 [3, 7] | other results
1 | CC(C)=CCc1c(O)cc(O)c2c(=O)c(-c3ccc(O)cc3)coc12 [8-PG, 8-Prenylgenistein] | 0.9% | <0.002% | 500 ± 200 nM | 49 ± 10% | – | – | –
2 | CC(C)=CCc1c(O)cc(O)c2c1O[C@H](c1ccc(O)cc1)CC2=O [8-PN, 8-Prenylnaringenin] | – | – | – | – | – | – | Effect on uterine weight (uterine tissue): increased uterine weight
3 | CC(C)=CCc1c(O)cc(O)c2c(=O)c(O)c(-c3ccc(O)cc3)oc12 [DMI, Desmethylicaritin] | – | – | – | – | 67 ± 12 | 200 ± 20 nM | –
4 | O=C1C[C@@H](c2ccc(O)cc2)Oc2cc(O)ccc21 [LigF, liquiritigenin] | – | – | – | – | – | – | EC50 [4]: 3400 nM
5 | O=C1C[C@@H](c2ccc(O)cc2)Oc2cc(O)cc(O)c21 [NRG, naringenin] | – | – | 3700 ± 500 nM | 69 ± 6% | – | – | ERβ % RBA (relative binding affinity = IC50 E2/IC50 (iso)flavonoid x100) [1]: 0.05%; ERα % RBA (relative binding affinity = IC50 E2/IC50 (iso)flavonoid x100) [2]: <0.002%
6 | Dehydrogenistein [DGN] | 14% | <0.002% | – | – | 84 ± 4.0 | 800 ± 100 nM | –

Source: publication PMC8294944 (Journal of agricultural and food chemistry, 2020)
